These results are taken from patent publication US20220089575A1, “FARNESOID X RECEPTOR AGONISTS AND USES THEREOF” (Metacrine, Inc., priority 2017, published 2022).

In the test the target is T1, hFXR (Homo sapiens, UniProt Q96RI1).
T1 construct: expressed in transfected cells; host or cells: CV-1 cells
T1 sequence (Q96RI1 1-486): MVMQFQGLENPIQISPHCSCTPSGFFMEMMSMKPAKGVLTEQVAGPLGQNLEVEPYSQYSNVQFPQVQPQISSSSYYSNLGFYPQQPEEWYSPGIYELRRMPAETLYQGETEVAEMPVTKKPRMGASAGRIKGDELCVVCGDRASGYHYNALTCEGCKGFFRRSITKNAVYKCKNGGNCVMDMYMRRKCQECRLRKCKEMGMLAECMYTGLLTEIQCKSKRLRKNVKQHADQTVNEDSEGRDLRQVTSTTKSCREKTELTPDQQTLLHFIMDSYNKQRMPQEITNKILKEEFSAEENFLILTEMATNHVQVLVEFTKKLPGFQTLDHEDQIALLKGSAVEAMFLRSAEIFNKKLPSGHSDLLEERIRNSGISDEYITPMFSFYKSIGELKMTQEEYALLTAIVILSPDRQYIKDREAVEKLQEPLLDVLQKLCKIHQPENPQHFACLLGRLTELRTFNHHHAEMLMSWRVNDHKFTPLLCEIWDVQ
T1 sequence (P19793 1-462 partner): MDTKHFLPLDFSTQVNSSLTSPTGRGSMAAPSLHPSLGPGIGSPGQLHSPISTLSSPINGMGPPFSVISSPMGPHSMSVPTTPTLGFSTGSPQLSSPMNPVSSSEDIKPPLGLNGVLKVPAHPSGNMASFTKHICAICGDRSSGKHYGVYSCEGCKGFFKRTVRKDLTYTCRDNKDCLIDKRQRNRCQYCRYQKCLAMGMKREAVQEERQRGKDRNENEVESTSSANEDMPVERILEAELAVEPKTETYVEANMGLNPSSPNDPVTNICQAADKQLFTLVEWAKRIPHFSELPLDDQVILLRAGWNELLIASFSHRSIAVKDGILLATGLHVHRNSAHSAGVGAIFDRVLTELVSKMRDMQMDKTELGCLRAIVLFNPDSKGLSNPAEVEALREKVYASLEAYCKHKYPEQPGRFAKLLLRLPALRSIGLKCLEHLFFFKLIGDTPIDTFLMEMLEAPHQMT
Description: In Vitro FXR Assay (TK): TK-ECRE-luc reporter in transfected CV-1 cells. Format: cell-based. As to conditions: 18 hrs, luminescence, maximum efficacy of <25% of the Fexarmine control classified as '+'. In a few lines:
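Luciferase luminescence read-out from lysed CV-1 cells transiently co-expressing hFXR and hRXR with a TK-ECRE-luc reporter (pCMX-YFP co-transfected). Compound exposure lasted 18 h at 37 °C, 5% CO2, in medium containing charcoal super-stripped serum.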
The EC50 is the midpoint of the concentration-response curve. Read a low EC50 as higher potency in that assay. `COC(=O)N[C@H]1CC[C@H](C(=O)N(C[C@H]2CC[C@H](c3ccc(OC)c(C)n3)CC2)c2cc(-c3coc(C4CC4)n3)ccn2)CC1` [Compound 26.21, Methyl (trans-4-((4-(2-cyclopropyloxazol-4-yl)pyridine-2-yl)((trans-4-(5-methoxy-6-methylpyridin-2-yl)cyclohexyl)methyl)carbamoyl)cyclohexyl)carbamate] displayed a 50% effective concentration (EC50) of at most 250 nM. To `COc1ccc([C@H]2CC[C@H](CN(c3cc(-c4coc(C5CC5)n4)ccn3)C(=O)[C@H]3CC[C@H](CN)CC3)CC2)nc1C` [Compound 26.22, trans-4-(Aminomethyl)-N-(4-(2-cyclopropyloxazol-4-yl)pyridin-2-yl)-N-((trans-4-(5-methoxy-6-methylpyridin-2-yl)cyclohexyl)methyl) cyclohexanecarboxamide] belongs at least 1000 nM; to `COc1ccc([C@H]2CC[C@H](CN(c3cccc(-c4cnn(C5CC5)c4)c3)C(=O)[C@H]3CC[C@H](OC(=O)NCCNC(C)=O)CC3)CC2)cc1C` [Compound 26.23, trans-4-((3-(1-Cyclopropyl-1H-pyrazol-4-yl)phenyl)((trans-4-(4-methoxy-3-methylphenyl)cyclohexyl)methyl)carbamoyl)cyclohexyl (2-acetamidoethyl)carbamate], at most 250 nM. The same measure for `COc1ccc([C@H]2CC[C@H](CN(c3cccc(-c4cnn(C5CC5)c4)c3)C(=O)[C@H]3CC[C@H](OC(=O)NCCNS(C)(=O)=O)CC3)CC2)cc1C` [Compound 26.24, trans-4-((3-(1-Cyclopropyl-1H-pyrazol-4-yl)phenyl)((trans-4-(4-methoxy-3-methylphenyl)cyclohexyl)methyl)carbamoyl)cyclohexyl (2-(methylsulfonamido)ethyl)carbamate]: at most 250 nM. The same measure for `COC(=O)NCCNC(=O)O[C@H]1CC[C@H](C(=O)N(C[C@H]2CC[C@H](c3ccc(OC)c(C)c3)CC2)c2cccc(-c3cnn(C4CC4)c3)c2)CC1` [Compound 26.25, trans-4-((3-(1-Cyclopropyl-1H-pyrazol-4-yl)phenyl)((trans-4-(4-methoxy-3-methylphenyl)cyclohexyl)methyl)carbamoyl)cyclohexyl methyl ethane-1,2-diyldicarbamate]: at most 250 nM. In turn, `COc1ccc([C@H]2CC[C@H](CN(c3cc(-c4coc(C5CC5)n4)ccn3)C(=O)[C@H]3CC[C@H](CNS(C)(=O)=O)CC3)CC2)nc1C` [Compound 26.26, trans-N-(4-(2-Cyclopropyloxazol-4-yl)pyridin-2-yl)-N-((trans-4-(5-methoxy-6-methylpyridin-2-yl)cyclohexyl)methyl)-4-(methylsulfonamidomethyl) cyclohexanecarboxamide] registered an EC50 of at most 250 nM. Turning to `COC(=O)NC[C@H]1CC[C@H](C(=O)N(C[C@H]2CC[C@H](c3ccc(OC)c(C)n3)CC2)c2cc(-c3coc(C4CC4)n3)ccn2)CC1` [Compound 26.27, Methyl ((trans-4-((4-(2-cyclopropyloxazol-4-yl)pyridin-2-yl)((trans-4-(5-methoxy-6-methylpyridin-2-yl)cyclohexyl)methyl)carbamoyl)cyclohexyl)methyl)carbamate], the half-maximal effective concentration (EC50) was at most 250 nM. To `CCOC(=O)NC[C@H]1CC[C@H](C(=O)N(C[C@H]2CC[C@H](c3ccc(OC)c(C)n3)CC2)c2cc(-c3coc(C4CC4)n3)ccn2)CC1` [Compound 26.28] belongs at most 250 nM. In the case of `COc1ccc([C@H]2CC[C@H](CN(c3cc(-c4coc(C5CC5)n4)ccn3)C(=O)[C@H]3CC[C@H](CNC(=O)CO)CC3)CC2)nc1C` [Compound 26.29, trans-N-(4-(2-Cyclopropyloxazol-4-yl)pyridin-2-yl)-4-((2-hydroxyacetamido)methyl)-N-((trans-4-(5-methoxy-6-methylpyridin-2-yl)cyclohexyl)methyl) cyclohexanecarboxamide], the concentration giving a half-maximal response (EC50) is 250 to 1000 nM. For `COc1ccc([C@H]2CC[C@H](CN(c3cc(-c4cnn(C5CC5)c4)ccn3)C(=O)[C@H]3CC[C@H](NC(C)=O)CC3)CC2)cc1C` [Compound 26.30, trans-4-Acetamido-N-(4-(1-cyclopropyl-1H-pyrazol-4-yl)pyridin-2-yl)-N-((trans-4-(4-methoxy-3-methylphenyl)cyclohexyl)methyl) cyclohexanecarboxamide], the EC50 is at most 250 nM. To `COc1ccc([C@H]2CC[C@H](CN(c3cc(-c4cnn(C5CC5)c4)ccn3)C(=O)[C@H]3CC[C@H](NC(=O)COC(C)=O)CC3)CC2)cc1C` [Compound 26.31, 2-((trans-4-(4-(1-Cyclopropyl-1H-pyrazol-4-yl)pyridin-2-yl)((trans-4-(4-methoxy-3-methylphenyl)cyclohexyl)methyl)carbamoyl)cyclohexyl)amino)-2-oxoethyl acetate] belongs at most 250 nM; to `COc1ccc([C@H]2CC[C@H](CN(c3cc(-c4cnn(C5CC5)c4)ccn3)C(=O)[C@H]3CC[C@H](NC(=O)CO)CC3)CC2)cc1C` [Compound 26.32, trans-N-(4-(1-Cyclopropyl-1H-pyrazol-4-yl)pyridin-2-yl)-4-(2-hydroxyacetamido)-N-((trans-4-(4-methoxy-3-methylphenyl)cyclohexyl)methyl) cyclohexanecarboxamide], at most 250 nM; to `COc1ccc([C@H]2CC[C@H](CN(c3cc(-c4cnn(C(C)C)c4)ccn3)C(=O)[C@H]3CC[C@H](NC(C)=O)CC3)CC2)cc1C` [Compound 26.33, trans-4-Acetamido-N-(4-(1-isopropyl-1H-pyrazol-4-yl)pyridin-2-yl)-N-((trans-4-(4-methoxy-3-methylphenyl)cyclohexyl)methyl)cyclohexanecarboxamide], at most 250 nM.

Regarding `COc1ccc([C@H]2CC[C@H](CN(c3cc(-c4cnn(C(C)C)c4)ccn3)C(=O)[C@H]3CC[C@H](NC(=O)COC(C)=O)CC3)CC2)cc1C` [Compound 26.34, 2-((trans-4-((4-(1-Isopropyl-1H-pyrazol-4-yl)pyridin-2-yl)((trans-4-(4-methoxy-3-methylphenyl)cyclohexyl)methyl)carbamoyl)cyclohexyl)amino)-2-oxoethyl acetate], the concentration for a half-maximal effect (EC50) was at most 250 nM.

Compound `COc1ccc([C@H]2CC[C@H](CN(c3cc(-c4cnn(C(C)C)c4)ccn3)C(=O)[C@H]3CC[C@H](NC(=O)CO)CC3)CC2)cc1C` [Compound 26.35, trans-4-(2-Hydroxyacetamido)-N-(4-(1-isopropyl-1H-pyrazol-4-yl)pyridin-2-yl)-N-((trans-4-(4-methoxy-3-methylphenyl)cyclohexyl)methyl) cyclohexanecarboxamide] returned an EC50 of at most 250 nM. To `CNC(=O)N[C@H]1CC[C@H](C(=O)N(C[C@H]2CC[C@H](c3ccc(OC)c(C)c3)CC2)c2cccc(-c3cnc(C4CC4)s3)c2)CC1` [Compound 26.36, trans-N-(3-(2-Cyclopropylthiazol-5-yl)phenyl)-N-((trans-4-(4-methoxy-3-methylphenyl)cyclohexyl)methyl)-4-(3-methylureido)cyclohexanecarboxamide] belongs at most 250 nM; to `CNC(=O)N[C@H]1CC[C@H](C(=O)N(C[C@H]2CC[C@H](c3ccc(OC)c(C)c3)CC2)c2cccc(-c3cnn(C4CC4)c3)c2)CC1` [Compound 26.37, trans-N-(3-(1-Cyclopropyl-1H-pyrazol-4-yl)phenyl)-N-((trans-4-(4-methoxy-3-methylphenyl)cyclohexyl)methyl)-4-(3-methylureido)cyclohexanecarboxamide], at most 250 nM. In turn, `COc1ccc([C@H]2CC[C@H](CN(c3cccc(-c4cnc(C5CC5)s4)c3)C(=O)[C@H]3CC[C@H](NC(=O)C(C)(C)O)CC3)CC2)cc1C` [Compound 27, trans-N-(3-(2-Cyclopropylthiazol-5-yl)phenyl)-4-(2-hydroxy-2-methylpropanamido)-N-((trans-4-(4-methoxy-3-methylphenyl)cyclohexyl)methyl)cyclohexanecarboxamide] came in with an EC50 of at most 250 nM. To `COc1ccc([C@H]2CC[C@H](CN(c3cccc(-c4cnc(C5CC5)s4)c3)C(=O)[C@H]3CC[C@H](NC(=O)C(C)O)CC3)CC2)cc1C` (stereo partly drawn) [Compound 27.01, trans-N-(3-(2-Cyclopropylthiazol-5-yl)phenyl)-4-(2-hydroxypropanamido)-N-((trans-4-(4-methoxy-3-methylphenyl)cyclohexyl)methyl) cyclohexanecarboxamide] belongs at most 250 nM; to `COc1ccc([C@H]2CC[C@H](CN(c3cccc(-c4cnc(C5CC5)s4)c3)C(=O)[C@H]3CC[C@H](NC(=O)C4COC4)CC3)CC2)cc1C` [Compound 27.02, N-(trans-4-((3-(2-Cyclopropylthiazol-5-yl)phenyl)((trans-4-(4-methoxy-3-methylphenyl)cyclohexyl)methyl)carbamoyl)cyclohexyl)oxetane-3-carboxamide], at most 250 nM.
